Consider five molecules from EP4497439A1, “COMPOUNDS FOR THE TREATMENT OR PREVENTION OF GOUT” (Universitat de les Illes Balears, priority 2023, dated 2025).

Data set [1] can be described thus: in vitro model of monosodium urate monohydrate (MSU) crystallization: naked eye observation and uric acid remaining in solution (phosphotungstic acid method). Format: physicochemical. Conditions: for concentration capable of preventing the formation of MSU crystals (increased uric acid in solution) / C100 (minimum concentration that totally prevented the formation of sodium urate crystals): 5 days (120 h); for effect on the crystallization of MSU (formation of MSU crystals) / solubility of sodium urate in the tested fluid: compound 0.3 mM; for effect on the crystallization of MSU (formation of MSU crystals): uric acid 375 mg/L (2.23 mM), 6 days (144 h) plate images, 4 days uric acid in solution; for effect on the crystallization of MSU (formation of MSU crystals) / solubility of sodium urate in the tested fluid / C100 (minimum concentration that totally prevented the formation of sodium urate crystals): phosphate buffer 12 mM. Set-up: C100 (minimum concentration that totally prevented the formation of sodium urate crystals): unit not given here.

For data set [2] the following is noted: doses of up to 400 mg three times a day; treatment of myopia; cited from earlier work.
The conditions of data set [3]: cited from earlier work.
Where [4] appears, read: uric acid 375 mg/L, [Na+] 400 mM, pH 7.4.

Where two headings read alike, the source gives them in different places.

As for `Cn1c(=O)[nH]c(=O)c2[nH]cnc21` [3-methylxanthine], in data set [1] (setting [4]), the “concentration capable of preventing the formation of MSU crystals (increased uric acid in solution)” value is not above 50 µM and the “solubility of sodium urate in the tested fluid” value (from here on “solubility of sodium urate”) was “significantly increased”. For the same molecule, the “effect on the crystallization of MSU (formation of MSU crystals)” value (“effect on the crystallization of MSU” below) in data set [1] ([Na+] 400 mM, pH 7.4) was “strong inhibition”. For the same molecule, in data set [1] (same concentration), the “effects relative to those of 7-methylxanthine” value is recorded as “approximately half”.
As for `Cn1c(=O)[nH]c2[nH]c(=O)[nH]c(=O)c21` [7-methyluric acid], the “effect on the crystallization of MSU” value in data set [1] ([Na+] 400 mM, pH 7.4) was “strong inhibition”. In addition, the “solubility of sodium urate” value in data set [1] (setting [4]) was “significantly increased”. The “effects relative to those of 7-methylxanthine” value in data set [1] (same concentration) is given as “like those of 7-methylxanthine”.
As to `Cn1cnc2[nH]c(=O)[nH]c(=O)c21` [7-methylxanthine], the toxicity entry in data set [2] is “do not present any toxicity”. The “formation of MSU crystals after 3 days” value in data set [1] (50 µM, 100 µM and 150 µM, triplicates, uric acid 375 mg/L, [Na+] 400 mM, pH 7.4, 72 h) is on record as “completely prevented”. The “concentration capable of preventing the formation of MSU crystals (increased uric acid in solution)” value in data set [1] (setting [4]) was not above 50 µM. The “C100 (minimum concentration that totally prevented the formation of sodium urate crystals)” value in data set [1] ([UA]0 275 mg/L, [Na+] 400 mM, pH 7.4) was 10; in data set [1] ([UA]0 300 mg/L, [Na+] 400 mM, pH 7.4) it was 20; in data set [1] ([UA]0 340 mg/L, [Na+] 400 mM, pH 7.4), 40; in data set [1] ([UA]0 375 mg/L, [Na+] 400 mM, pH 7.4), 60; in data set [1] ([UA]0 400 mg/L, [Na+] 400 mM, pH 7.4) it was 80; in data set [1] ([UA]0 425 mg/L, [Na+] 400 mM, pH 7.4), 100. Besides, the “C100 (minimum concentration that totally prevented the formation of sodium urate crystals)” value in data set [1] ([UA]0 450 mg/L, [Na+] 400 mM, pH 7.4) is 125. In data set [1] ([Na+] 400 mM, pH 7.4), the “effect on the crystallization of MSU” value is on record as “strong inhibition”. Besides, in data set [1] (setting [4]), the “solubility of sodium urate” value was “significantly increased”. The “crystallization inhibition compared with the other methylxanthine” value in data set [1] (same concentration, 5 days, uric acid 375 mg/L) is on record as “significantly higher crystallization inhibition compared to 3-methylxanthine”. In addition, the “concentration that prevents the formation of sodium urate crystals for times longer than 48h” value in data set [1] (times longer than 48h) is listed as approximately 6 mg/L.
Consider `Cn1c(=O)c2c(ncn2C)n(C)c1=O` [caffeine, 1,3,7-trimethylxanthine, reference compound], for which, in data set [1] ([Na+] 400 mM, pH 7.4), the “effect on the crystallization of MSU” value was “does not affect”. The “share metabolized to 7-methylxanthine” value in data set [3] (administered orally) was 8%.
As for `Cn1cnc2c1c(=O)[nH]c(=O)n2C` [theobromine, 3,7-dimethylxanthine, reference compound], the “effect on the crystallization of MSU” value in data set [1] ([Na+] 400 mM, pH 7.4) is listed as “did not show any effect”. In data set [3] (in vivo, po), the “share metabolized to 7-methylxanthine” value is 30%.
